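Values below derive from 48-hour exposures of cells grown in 96-well plates, with endpoints linearly interpolated between the two concentrations bracketing the appropriate inhibition level. The concentration for full growth arrest is given as TGI.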
How the values were obtained:
Assay in all cases: NCI tumour cell line growth inhibition, 48 h
[1] = test system: 786-0 renal
[2] = test system: A498 renal
[3] = test system: A549 NSCLC
[4] = test system: ACHN renal
[5] = test system: CCRF-CEM leukemia
[6] = test system: COLO 205 colon
[7] = test system: DLD-1 colon
[8] = test system: DMS 114 small cell lung
[9] = test system: DMS 273 small cell lung
[10] = test system: EKVX NSCLC
[11] = test system: HCC-2998 colon
[12] = test system: HCT-116 colon
[13] = test system: HCT-15 colon
[14] = test system: HOP-18 NSCLC
[15] = test system: HOP-62 NSCLC
[16] = test system: HOP-92 NSCLC
[17] = test system: HT29 colon
[18] = test system: IGROV1 ovarian
[19] = test system: K-562 leukemia
[20] = test system: KM12 colon
[21] = test system: KM20L2 colon
[22] = test system: LOX IMVI melanoma
[23] = test system: LXFL 529 NSCLC
[24] = test system: M14 melanoma
[25] = test system: M19-MEL melanoma
[26] = test system: MALME-3M melanoma
[27] = test system: MOLT-4 leukemia
[28] = test system: NCI-H226 lung
[29] = test system: NCI-H23 lung
[30] = test system: NCI-H460 lung
[31] = test system: NCI-H522 lung
[32] = test system: OVCAR-3 ovarian
[33] = test system: OVCAR-4 ovarian
[34] = test system: OVCAR-5 ovarian
[35] = test system: OVCAR-8 ovarian
[36] = test system: RXF 393 renal
[37] = test system: RXF-631 renal
[38] = test system: SF-268 CNS
[39] = test system: SF-295 CNS
[40] = test system: SF-539 CNS
[41] = test system: SK-MEL-2 melanoma
[42] = test system: SK-MEL-28 melanoma
[43] = test system: SK-MEL-5 melanoma
[44] = test system: SK-OV-3 ovarian
[45] = test system: SN12C renal
[46] = test system: SNB-19 CNS
[47] = test system: SNB-75 CNS
[48] = test system: SNB-78 CNS
[49] = test system: TK-10 renal
[50] = test system: U251 CNS
[51] = test system: UACC-257 melanoma
[52] = test system: UACC-62 melanoma
[53] = test system: UO-31 renal
[54] = test system: XF 498 CNS
[55] = test system: CAKI-1 renal
[56] = test system: HL-60(TB) leukemia
[57] = test system: RPMI-8226 leukemia
[58] = test system: SR leukemia
[59] = test system: SW-620 colon
[60] = test system: MCF7 breast
[61] = test system: NCI/ADR-RES ovarian
[62] = test system: P388 leukemia
[63] = test system: P388/ADR leukemia

O=C(CCc1nnc2s/c(=C\c3ccccc3[N+](=O)[O-])c(=O)n12)Nc1cc(Cl)c(Cl)cc1Cl
TGI [1]: 31.3 µM
TGI [2]: 53.6 µM
TGI [3]: > 100 µM
TGI [4]: > 100 µM
TGI [5]: 82.6 µM
TGI [6]: > 100 µM
TGI [7]: 66.6 µM
TGI [8]: > 100 µM
TGI [9]: > 100 µM
TGI [10]: > 100 µM
TGI [11]: > 100 µM
TGI [12]: 31.4 µM
TGI [13]: > 100 µM
TGI [14]: 94.4 µM
TGI [15]: 64.1 µM
TGI [16]: 51.2 µM
TGI [17]: > 100 µM
TGI [18]: > 100 µM
TGI [19]: 72 µM
TGI [20]: 43.4 µM
TGI [21]: > 100 µM
TGI [22]: 46.9 µM
TGI [23]: 53.8 µM
TGI [24]: > 100 µM
TGI [25]: > 100 µM
TGI [26]: > 100 µM
TGI [27]: 71.6 µM
TGI [28]: 40.6 µM
TGI [29]: > 100 µM
TGI [30]: 75.7 µM
TGI [31]: > 100 µM
TGI [32]: 35.8 µM
TGI [33]: 34.6 µM
TGI [34]: > 100 µM
TGI [35]: 89.9 µM
TGI [36]: 57.6 µM
TGI [37]: > 100 µM
TGI [38]: 78.1 µM
TGI [39]: 49.5 µM
TGI [40]: 46 µM
TGI [41]: > 100 µM
TGI [42]: > 100 µM
TGI [43]: > 100 µM
TGI [44]: > 100 µM
TGI [45]: 63.8 µM
TGI [46]: 74.3 µM
TGI [47]: 55.8 µM
TGI [48]: > 100 µM
TGI [49]: 87.9 µM
TGI [50]: 30.8 µM
TGI [51]: > 100 µM
TGI [52]: > 100 µM
TGI [53]: 91.4 µM
TGI [54]: 58 µM

C[C@H](C(=O)C12CC3CC(CC(C3)C1)C2)[C@H](O)c1ccccc1
TGI [1]: 55.7 µM
TGI [3]: > 100 µM
TGI [4]: > 100 µM
TGI [55]: 91.2 µM
TGI [5]: > 100 µM
TGI [6]: 28.3 µM
TGI [7]: > 100 µM
TGI [10]: > 100 µM
TGI [12]: 32.3 µM
TGI [56]: 58.1 µM
TGI [14]: > 100 µM
TGI [16]: 45.8 µM
TGI [17]: 34.1 µM
TGI [18]: > 100 µM
TGI [19]: > 100 µM
TGI [20]: 70.7 µM
TGI [21]: 43.9 µM
TGI [22]: 32 µM
TGI [23]: > 100 µM
TGI [24]: > 100 µM
TGI [27]: > 100 µM
TGI [28]: 36.5 µM
TGI [29]: > 100 µM
TGI [30]: > 100 µM
TGI [31]: 57.8 µM
TGI [32]: 63.3 µM
TGI [33]: > 100 µM
TGI [34]: 56.2 µM
TGI [35]: > 100 µM
TGI [57]: > 100 µM
TGI [36]: 48.3 µM
TGI [37]: > 100 µM
TGI [38]: 30.2 µM
TGI [39]: > 100 µM
TGI [40]: 96.5 µM
TGI [41]: 38.8 µM
TGI [42]: 31.4 µM
TGI [43]: 32 µM
TGI [44]: > 100 µM
TGI [45]: 36.1 µM
TGI [46]: > 100 µM
TGI [47]: 75.9 µM
TGI [48]: > 100 µM
TGI [58]: 78.4 µM
TGI [59]: > 100 µM
TGI [49]: > 100 µM
TGI [51]: 78.4 µM
TGI [52]: > 100 µM
TGI [53]: 73.5 µM
TGI [54]: 67.7 µM

COC1=C(C)C(=O)C2=C(C1=O)[C@@H]1[C@@H]3Cc4c(OC(=O)CO)c(C)c(OC)c(O)c4[C@H](CNC(=O)C(C)=O)N3[C@@H](C#N)[C@H](C2)N1C
TGI [3]: 49 µM
TGI [55]: 7.87 µM
TGI [6]: < 0.0309 µM
TGI [8]: < 0.01 µM
TGI [9]: 0.065 µM
TGI [11]: 0.226 µM
TGI [12]: 12.1 µM
TGI [56]: 2.75 µM
TGI [14]: 0.0966 µM
TGI [15]: 1.16 µM
TGI [16]: < 0.0258 µM
TGI [17]: 10.6 µM
TGI [19]: 7.77 µM
TGI [20]: 2.05 µM
TGI [21]: 0.686 µM
TGI [22]: < 0.01 µM
TGI [25]: 0.0463 µM
TGI [26]: 0.351 µM
TGI [60]: 13.9 µM
TGI [27]: 0.173 µM
TGI [28]: 0.834 µM
TGI [29]: < 0.0176 µM
TGI [30]: 1.83 µM
TGI [31]: < 0.0139 µM
TGI [61]: 17.1 µM
TGI [32]: 0.0366 µM
TGI [33]: 0.484 µM
TGI [34]: 0.447 µM
TGI [35]: 0.684 µM
TGI [62]: 0.0205 µM
TGI [63]: 1.82 µM
TGI [57]: 0.389 µM
TGI [36]: 0.0392 µM
TGI [38]: 0.208 µM
TGI [39]: 2.28 µM
TGI [40]: 0.24 µM
TGI [41]: 0.0359 µM
TGI [42]: 1.2 µM
TGI [43]: 0.0393 µM
TGI [44]: 28.6 µM
TGI [45]: 10.8 µM
TGI [48]: 0.998 µM
TGI [59]: 3.24 µM
TGI [50]: 4.09 µM
TGI [51]: 0.0364 µM
TGI [52]: < 0.0368 µM
TGI [53]: 0.362 µM
TGI [54]: < 0.01 µM

Reference: PubChem BioAssay (NCI)
